Test results taken from patent US20200199102A1, “COMPOUNDS THAT PARTICIPATE IN COOPERATIVE BINDING AND USES THEREOF” (Revolution Medicines, Inc., priority 2017, published 2020).
Where a SMILES comes first, the peptide text is derived from it. [ ]: non-standard residue; d: D form. MeBmt = C/C=C/C[C@@H](C)[C@@H](O)[C@H](NC)C(=O)O; NMeY = CN[C@@H](Cc1ccc(O)cc1)C(=O)O; NMeF = CN[C@@H](Cc1ccccc1)C(=O)O; NMeI = CC[C@H](C)[C@H](NC)C(=O)O; NMeT = CN[C@H](C(=O)O)[C@@H](C)O; NMeL = CN[C@@H](CC(C)C)C(=O)O; NMeV = CN[C@H](C(=O)O)C(C)C; NMeA = CN[C@@H](C)C(=O)O; dNMeA = CN[C@H](C)C(=O)O; Abu = CC[C@H](N)C(=O)O; Sar = CNCC(=O)O

Target: T1, Cyclophilin A (Homo sapiens, UniProt P62937)
T1 construct: made in house
T1 sequence (P62937 whole entry, species assumed): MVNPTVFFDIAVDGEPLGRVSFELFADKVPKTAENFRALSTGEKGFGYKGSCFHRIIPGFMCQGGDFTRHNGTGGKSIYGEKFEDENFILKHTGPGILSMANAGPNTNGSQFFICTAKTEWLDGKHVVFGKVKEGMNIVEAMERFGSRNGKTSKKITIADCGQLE
Experiment: AlphaLISA inhibition of binding of biotinylated Cyclosporin A to FLAG tagged Cyclophilin A
Settings: for % signal: AlphaLISA signal; for % signal / % inhibition of CsA binding to Cyclophilin A: test concentration not given; for IC50: read-out: IC50 value of CsA binding to Cyclophilin A
Source text: The binding of compounds of the invention to Cyclophilin A can be determined using the following protocol.
This protocol utilizes Perkin Elmers AlphaLISA technology platform to detect cyclosporine analogues by measuring the inhibition of binding of biotinylated Cyclosporin A to FLAG tagged Cyclophilin A.
10×TBST Buffer (Boston BioProducts IBB-181), Biotinylated Cyclosporin A (in-house), FLAG tagged Cyclophilin A (in-house); anti-FLAG Donor beads (PerkinElmer AS103) and Streptavidin Acceptor beads (PerkinElmer AL125); Compounds in DMSO (in-house), Cyclosporin A (LC Labs Cat #C-6000).
Add 20 uL of 6 nM Biotinylated CsA working stock to each well of the 96-well plate. Add 1 uL of test compound (100% DMSO) to each well of the plate using the Janus MTD head and P20 tips (except control wells). Add 1 uL of DMSO to negative control wells and 1 uL of 500 uM Cyclosporin A solution to positive control wells. In the dark, add 20 uL of combined Donor/Acceptor beads to each well. Incubate in the dark for 30 minutes at room temperature. In the dark, add 10 uL of 25 nM Flag tagged CypA working stock to each well. Incubate in the dark for 60 minutes at room temperature. Protect plate from light until reading on Biotek Synergy2 Plate Reader; Alphalisa 96-well protocol (680 excitation/615 emission).

Row | Compound | % signal [%] | IC50 [nM] | % inhibition of CsA binding to Cyclophilin A [%]
1 | C/C=C/C[C@@H](C)[C@@H](O)[C@H]1C(=O)N[C@@H](CC)C(=O)N(C)CC(=O)N(C)[C@H](C)C(=O)N[C@@H](C)C(=O)N(C)CC(=O)N[C@@H](C)C(=O)N[C@H](C)C(=O)N(C)[C@@H](CC(C)C)C(=O)N(C)[C@@H](CC(C)C)C(=O)N(C)[C@@H](C(C)C)C(=O)N1C [Compound C19] (cyclo([MeBmt][Abu][Sar][dNMeA]A[Sar]A[dA][NMeL][NMeL][NMeV])) | 16.79 | < 2000 | 83.21
2 | C/C=C/C[C@@H](C)[C@@H](O)[C@H]1C(=O)N[C@@H](CC)C(=O)N(C)CC(=O)N(C)[C@@H](Cc2ccccc2)C(=O)N[C@@H](C)C(=O)N(C)CC(=O)N[C@@H](C)C(=O)N[C@H](C)C(=O)N(C)[C@@H](CC(C)C)C(=O)N(C)[C@@H](CC(C)C)C(=O)N(C)[C@@H](C(C)C)C(=O)N1C [Compound C20] (cyclo([MeBmt][Abu][Sar][NMeF]A[Sar]A[dA][NMeL][NMeL][NMeV])) | 2.77 | < 2000 | 97.23
3 | C/C=C/C[C@@H](C)[C@@H](O)[C@H]1C(=O)N[C@@H](CC)C(=O)N(C)CC(=O)N(C)CC(=O)N[C@@H](C)C(=O)N(C)CC(=O)N[C@@H](C)C(=O)N[C@H](C)C(=O)N(C)[C@@H](CC(C)C)C(=O)N(C)[C@@H](CC(C)C)C(=O)N(C)[C@@H](C(C)C)C(=O)N1C [Compound C21] (cyclo([MeBmt][Abu][Sar][Sar]A[Sar]A[dA][NMeL][NMeL][NMeV])) | 31.08 | < 2000 | 68.92
4 | C/C=C/C[C@@H](C)[C@@H](O)[C@H]1C(=O)N[C@@H](CC)C(=O)N(C)CC(=O)N(C)[C@@H](CC(C)C)C(=O)N[C@@H](C)C(=O)N(C)CC(=O)N[C@@H](C)C(=O)N[C@H](C)C(=O)N(C)[C@@H](CC(C)C)C(=O)N(C)[C@@H](CC(C)C)C(=O)N(C)[C@@H](C(C)C)C(=O)N1C [Compound C22] (cyclo([MeBmt][Abu][Sar][NMeL]A[Sar]A[dA][NMeL][NMeL][NMeV])) | 5.97 | < 2000 | 94.03
5 | C/C=C/C[C@@H](C)[C@@H](O)[C@H]1C(=O)N[C@@H](CC)C(=O)N(C)CC(=O)N(C)[C@@H]([C@@H](C)O)C(=O)N[C@@H](C)C(=O)N(C)CC(=O)N[C@@H](C)C(=O)N[C@H](C)C(=O)N(C)[C@@H](CC(C)C)C(=O)N(C)[C@@H](CC(C)C)C(=O)N(C)[C@@H](C(C)C)C(=O)N1C [Compound C23] (cyclo([MeBmt][Abu][Sar][NMeT]A[Sar]A[dA][NMeL][NMeL][NMeV])) | 1.28 | < 2000 | 98.72
6 | C/C=C/C[C@@H](C)[C@@H](O)[C@H]1C(=O)N[C@@H](CC)C(=O)N(C)CC(=O)N(C)[C@@H]([C@@H](C)CC)C(=O)N[C@@H](C(C)C)C(=O)N(C)CC(=O)N[C@@H](C)C(=O)N[C@H](C)C(=O)N(C)[C@@H](CC(C)C)C(=O)N(C)[C@@H](CC(C)C)C(=O)N(C)[C@@H](C(C)C)C(=O)N1C [Compound C25] (cyclo([MeBmt][Abu][Sar][NMeI]V[Sar]A[dA][NMeL][NMeL][NMeV])) | 0.37 | < 2000 | –
7 | C/C=C/C[C@@H](C)[C@@H](O)[C@H]1C(=O)N[C@@H](CC)C(=O)N(C)CC(=O)N(C)[C@@H](Cc2ccccc2)C(=O)N[C@@H](C(C)C)C(=O)N(C)CC(=O)N[C@@H](C)C(=O)N[C@H](C)C(=O)N(C)[C@@H](CC(C)C)C(=O)N(C)[C@@H](CC(C)C)C(=O)N(C)[C@@H](C(C)C)C(=O)N1C [Compound C27] (cyclo([MeBmt][Abu][Sar][NMeF]V[Sar]A[dA][NMeL][NMeL][NMeV])) | 5.27 | < 2000 | 94.73
8 | C/C=C/C[C@@H](C)[C@@H](O)[C@H]1C(=O)N[C@@H](CC)C(=O)N(C)CC(=O)N(C)CC(=O)N[C@@H](C(C)C)C(=O)N(C)CC(=O)N[C@@H](C)C(=O)N[C@H](C)C(=O)N(C)[C@@H](CC(C)C)C(=O)N(C)[C@@H](CC(C)C)C(=O)N(C)[C@@H](C(C)C)C(=O)N1C [Compound C28] (cyclo([MeBmt][Abu][Sar][Sar]V[Sar]A[dA][NMeL][NMeL][NMeV])) | 1.06 | < 2000 | 98.94
9 | C/C=C/C[C@@H](C)[C@@H](O)[C@H]1C(=O)N[C@@H](CC)C(=O)N(C)CC(=O)N(C)[C@@H](CC(C)C)C(=O)N[C@@H](C(C)C)C(=O)N(C)CC(=O)N[C@@H](C)C(=O)N[C@H](C)C(=O)N(C)[C@@H](CC(C)C)C(=O)N(C)[C@@H](CC(C)C)C(=O)N(C)[C@@H](C(C)C)C(=O)N1C [Compound C30] | 0.06 | < 2000 | 99.94
10 | C/C=C/C[C@@H](C)[C@@H](O)[C@H]1C(=O)N[C@@H](CC)C(=O)N(C)CC(=O)N(C)[C@@H]([C@@H](C)O)C(=O)N[C@@H](C(C)C)C(=O)N(C)CC(=O)N[C@@H](C)C(=O)N[C@H](C)C(=O)N(C)[C@@H](CC(C)C)C(=O)N(C)[C@@H](CC(C)C)C(=O)N(C)[C@@H](C(C)C)C(=O)N1C [Compound C31] (cyclo([MeBmt][Abu][Sar][NMeT]V[Sar]A[dA][NMeL][NMeL][NMeV])) | −0.03 | < 2000 | 100.03
11 | C/C=C/C[C@@H](C)[C@@H](O)[C@H]1C(=O)N[C@@H](CC)C(=O)N(C)CC(=O)N(C)[C@@H](Cc2ccc(O)cc2)C(=O)N[C@@H](C(C)C)C(=O)N(C)CC(=O)N[C@@H](C)C(=O)N[C@H](C)C(=O)N(C)[C@@H](CC(C)C)C(=O)N(C)[C@@H](CC(C)C)C(=O)N(C)[C@@H](C(C)C)C(=O)N1C [Compound C32] (cyclo([MeBmt][Abu][Sar][NMeY]V[Sar]A[dA][NMeL][NMeL][NMeV])) | 0.14 | < 2000 | 99.86
12 | C/C=C/C[C@@H](C)[C@@H](O)[C@H]1C(=O)N[C@@H](CC)C(=O)N(C)CC(=O)N(C)[C@@H]([C@@H](C)CC)C(=O)N[C@@H](C(C)C)C(=O)N(C)[C@@H](CC(C)C)C(=O)N[C@@H](CC(C)C)C(=O)N[C@H](C)C(=O)N(C)[C@@H](CC(C)C)C(=O)N(C)[C@@H](CC(C)C)C(=O)N(C)[C@@H](C(C)C)C(=O)N1C [Compound C45] (cyclo([MeBmt][Abu][Sar][NMeI]V[NMeL]L[dA][NMeL][NMeL][NMeV])) | −0.03 | < 2000 | 100.03
13 | C/C=C/C[C@@H](C)[C@@H](O)[C@H]1C(=O)N[C@@H](CC)C(=O)N(C)CC(=O)N(C)[C@@H](C)C(=O)N[C@@H](C(C)C)C(=O)N(C)[C@@H](CC(C)C)C(=O)N[C@@H](CC(C)C)C(=O)N[C@H](C)C(=O)N(C)[C@@H](CC(C)C)C(=O)N(C)[C@@H](CC(C)C)C(=O)N(C)[C@@H](C(C)C)C(=O)N1C [Compound C46] (cyclo([MeBmt][Abu][Sar][NMeA]V[NMeL]L[dA][NMeL][NMeL][NMeV])) | 1.04 | < 2000 | 98.96
14 | C/C=C/C[C@@H](C)[C@@H](O)[C@H]1C(=O)N[C@@H](CC)C(=O)N(C)CC(=O)N(C)[C@@H](Cc2ccccc2)C(=O)N[C@@H](C(C)C)C(=O)N(C)[C@@H](CC(C)C)C(=O)N[C@@H](CC(C)C)C(=O)N[C@H](C)C(=O)N(C)[C@@H](CC(C)C)C(=O)N(C)[C@@H](CC(C)C)C(=O)N(C)[C@@H](C(C)C)C(=O)N1C [Compound C48] (cyclo([MeBmt][Abu][Sar][NMeF]V[NMeL]L[dA][NMeL][NMeL][NMeV])) | 15.72 | < 2000 | 84.28
15 | C/C=C/C[C@@H](C)[C@@H](O)[C@H]1C(=O)N[C@@H](CC)C(=O)N(C)CC(=O)N(C)CC(=O)N[C@@H](C(C)C)C(=O)N(C)[C@@H](CC(C)C)C(=O)N[C@@H](CC(C)C)C(=O)N[C@H](C)C(=O)N(C)[C@@H](CC(C)C)C(=O)N(C)[C@@H](CC(C)C)C(=O)N(C)[C@@H](C(C)C)C(=O)N1C [Compound C49] (cyclo([MeBmt][Abu][Sar][Sar]V[NMeL]L[dA][NMeL][NMeL][NMeV])) | 19.41 | < 2000 | 80.59
16 | C/C=C/C[C@@H](C)[C@@H](O)[C@H]1C(=O)N[C@@H](CC)C(=O)N(C)CC(=O)N(C)[C@@H](CC(C)C)C(=O)N[C@@H](C(C)C)C(=O)N(C)[C@@H](CC(C)C)C(=O)N[C@@H](CC(C)C)C(=O)N[C@H](C)C(=O)N(C)[C@@H](CC(C)C)C(=O)N(C)[C@@H](CC(C)C)C(=O)N(C)[C@@H](C(C)C)C(=O)N1C [Compound C50] | 6.06 | < 2000 | 93.94
